For assay [1], the system named is HCV genotype 1a (H77 strain) replicon in HUH-7 cells. As to the kind of experiment: HCV replicon luciferase reporter assay, genotype 1a. Particulars: 3 days incubation. In kind it is cell-based. The text has this: (§1) Generation of HCV Replicon
(§2) An HCV replicon whole cell system was established as described by Lohmann V, Korner F, Koch J, Herian U, Theilmann L, Bartenschlager R., Science 285(5424):110-3 (1999) and modified to introduce a luciferase reporter, as first described by Krieger et al (Krieger N, Lohmann V, and Bartenschlager R, J. Virol. 75(10):4614-4624 (2001)). CDNA encoding a humanized form of the Renilla luciferase gene and a linker sequence fused directly to the 3′-end of the luciferase gene were introduced into the replicon construct using an Asc1 restriction site located in core, directly upstream of the neomycin marker gene. The adaptive mutation at position 1179 (serine to isoleucine) was also introduced (Blight K J, Kolykhalov, A A, Rice, C M, Science 290(5498):1972-1974). A stable cell line constitutively expressing this HCV replicon construct was generated by first linearizing plasmid DNAs with ScaI. RNA transcripts were synthesized in vitro using the T7 MegaScript transcription kit (Ambion, Austin, Tex.) according to manufacturer's directions. In vitro transcripts of the cDNA were transfected into the human hepatoma cell line, HUH-7. […] Resulting cell lines were characterized for positive and negative strand RNA production and protein production over time.
A stable HCV replicon luciferase reporter cell line representing the genotype 1a H77 strain (Yanagi M, Purcell R H, Emerson S U, et al. Transcripts from a single full-length cDNA clone of hepatitis C virus are infectious when directly transfected into the liver of a chimpanzee. Proc Natl Acad Sci USA 1997; 94(16):8738-8743) was generated as described previously for the genotype 1b(Con1) replicon luciferase cell line. The replicon construct was modified by introducing mutations were introduced into the genes encoding the NS3 helicase domain (proline replaced by leucine at position 1496) and NSSA (serine to isoleucine at position 2204) to improve replication in cell culture.
(§3) HCV Replicon Luciferase Reporter Assay
(§4) HCV replicon luciferase assays were developed to monitor the inhibitory effects of compounds described in the disclosure on HCV genotypes 1a and 1b viral replication. HUH-7 cells, constitutively expressing the HCV replicon, were grown in Dulbecco's Modified Eagle Media (DMEM) (Gibco-BRL) containing 10% Fetal calf serum (FCS) (Sigma) and 1 mg/mL G418 (Gibco-BRL). Compounds were serially diluted 3 folds in DMSO for a twenty-point titration and subsequently transferred to sterile 384-well tissue-culture treated plates (Corning cat #3571). The plates were then seeded with 50 μL of cells at a density of 3.0×10^3 cells/well in DMEM containing 4% FCS (final DMSO concentration at 0.5%). After 3 days incubation at 37° C., cells were analyzed for Renilla Luciferase activity using the EnduRen as substrate (Promega cat #E6485). The EnduRen substrate was diluted in DMEM and then added to the plates to a final concentration of 7.5 μM. The plates were incubated for 2 hrs at 37° C. and then read immediately for 30 seconds with Viewlux Imager (PerkinElmer) using a luminescence program. To assess cytotoxicity of compounds, CC50 values were generated by multiplexing the EnduRen-containing plates with Cell Titer-Blue (Promega, cat # G8082). Cell-Titer Blue (3 μL) was added to each well and incubated for 8 hrs at 37° C. The fluorescence signal from each well was read, with an excitation wavelength at 525/10 nm and an emission wavelength of 598/10 nm, using the Viewlux Imager.
(§5) The EC50 values for compounds were calculated by using a four-parameter logistic equation: y=A+((B−A)/(1+((C/x)^D))), where A and B denotes minimal and maximal % inhibition, respectively, C is the EC50, D is the hill slope and x represents compound concentration.

Assay [2] deals with HCV genotype 1b (Con1) replicon in HUH-7 cells. Briefly: HCV replicon luciferase reporter assay, genotype 1b. The note with it: 3 days incubation. The assay is classed as cell-based.
Text: as §1
as §2, with “time. […]” for “time.”
as §3, §4, §5

Setting [3] is: HCV genotype 1a replicon luciferase, read-out: LE_1a (EC50, range).
Where [4] appears, read: HCV genotype 1b replicon luciferase, read-out: LE_1b (EC50, range).
The mark [5] stands for this setting: Hepatitis C virus, Huh-7, 72 h, HCV genotype 1a replicon luciferase assay, range class, read-out: LE_1a (EC50, range).
[6] abbreviates: Hepatitis C virus, Huh-7, 72 h, HCV genotype 1b replicon luciferase assay, range class, read-out: LE_1b (EC50, range).

Where two headings read alike, the source gives them in different places.

Turning to “1,1,1-trifluoro-2-methylpropan-2-yl((2R,6S,7R,9R,13aS,14aR,16aS,Z)-14a-((cyclopropylsulfonyl)carbamoyl)-2-((3,7-dimethoxy-2-(trifluoromethyl)quinoxalin-6-yl)oxy)-7-ethyl-9-methyl-5,16-dioxo-1,2,3,5,6,7,8,9,10,11,13a,14,14a,15,16,16a-hexadecahydrocyclopropa[e]pyrrolo[1,2-a][1,4]diazacyclopentadecin-6-yl)carbamate [Compound 4355]”, the 50% effective concentration (EC50) in assay [1] (setting [3]) and in assay [2] (setting [4]) was 5.01 to 35 nM in each case.

For the compound “3,3-difluoro-2-methylbutan-2-yl((2R,6S,7R,9R,13aS,14aR,16aS,Z)-7-ethyl-2-((2-(3-fluoro-4-isopropoxyphenyl)-7-methoxyquinolin-4-yl)oxy)-9-methyl-14a-(((1-methylcyclopropyl)sulfonyl)carbamoyl)-5,16-dioxo-1,2,3,5,6,7,8,9,10,11,13a,14,14a,15,16,16a-hexadecahydrocyclopropa[e]pyrrolo[1,2-a][1,4]diazacyclopentadecin-6-yl)carbamate [Compound 5550]”, the half-maximal effective concentration (EC50) in assay [1] (setting [3]) lay in the range of 0.51 to 1 nM; in assay [2] (setting [4]), 1.01 to 5 nM.

Regarding `CC1CC/C=C\[C@@H]2C[C@@]2(C(=O)NS(=O)(=O)C2(CF)CC2)NC(=O)[C@@H]2C[C@@H](Oc3nccc4c5c(ccc34)OCCO5)CN2C(=O)[C@@H](NC(=O)OC(C)(C)C)[C@H](C)C1` (stereo in doubt) [Compound 5321, tert-butyl ((2R,6S,7R,9R,13aS,14aR,16aS,Z)-2-((2,3-dihydro-[1,4]dioxino[2,3-f]isoquinolin-7-yl)oxy)-14a-(((1-(fluoromethyl)cyclopropyl)sulfonyl)carbamoyl)-7,9-dimethyl-5,16-dioxo-1,2,3,5,6,7,8,9,10,11,13a,14,14a,15,16,16a-hexadecahydrocyclopropa[e]pyrrolo[1,2-a][1,4]diazacyclopentadecin-6-yl)carbamate], the EC50 in assay [1] (Hepatitis C virus, Huh-7, 72 h, HCV genotype 1a replicon luciferase, read-out: LE_1a (EC50, range)) was under 5.46 nM; in assay [2] (Hepatitis C virus, Huh-7, 72 h, HCV genotype 1b replicon luciferase, read-out: LE_1b (EC50, range)), under 5.46 nM.

Turning to `COc1ccc2c(O[C@@H]3C[C@H]4C(=O)N[C@]5(C(=O)NS(=O)(=O)C6CC6)C[C@H]5/C=C\CC[C@@H](C)C[C@@H](C)[C@H](NC(=O)OC(C)(C)C(F)(F)F)C(=O)N4C3)nccc2c1` [Compound 7, 1,1,1-trifluoro-2-methylpropan-2-yl((2R,6S,7R,9R,13aS,14aR,16aS,Z)-14a-((cyclopropylsulfonyl)carbamoyl)-2-((6-methoxyisoquinolin-1-yl)oxy)-7,9-dimethyl-5,16-dioxo-1,2,3,5,6,7,8,9,10,11,13a,14,14a,15,16,16a-hexadecahydrocyclopropa[e]pyrrolo[1,2-a][1,4]diazacyclopentadecin-6-yl)carbamate], the EC50 in assay [1] (setting [5]) and in assay [2] (setting [6]) was under 5.46 nM in each case.

In the case of `COc1ccc2c(O[C@@H]3C[C@H]4C(=O)N[C@]5(C(=O)NS(=O)(=O)C6(F)CC6)C[C@H]5/C=C\CC[C@@H](C)C[C@@H](C)[C@H](NC(=O)OC(C)(C)C)C(=O)N4C3)nccc2c1` [Compound 9, tert-butyl ((2R,6S,7R,9R,13aS,14aR,16aS,Z)-14a-(((1-fluorocyclopropyl)sulfonyl)carbamoyl)-2-((6-methoxyisoquinolin-1-yl)oxy)-7,9-dimethyl-5,16-dioxo-1,2,3,5,6,7,8,9,10,11,13a,14,14a,15,16,16a-hexadecahydrocyclopropa[e]pyrrolo[1,2-a][1,4]diazacyclopentadecin-6-yl)carbamate], the half-maximal effective concentration (EC50) in assay [1] (setting [5]) and in assay [2] (setting [6]) was under 5.46 nM in each case.

As to `COc1ccc2c(O[C@@H]3C[C@H]4C(=O)N[C@]5(C(=O)NS(=O)(=O)C6(F)CC6)C[C@H]5/C=C\CC[C@H](C)C[C@@H](C)[C@H](NC(=O)OC(C)(C)C)C(=O)N4C3)nccc2c1` [Compound 10, tert-butyl ((2R,6S,7R,9S,13aS,14aR,16aS,Z)-14a-(((1-fluorocyclopropyl)sulfonyl)carbamoyl)-2-((6-methoxyisoquinolin-1-yl)oxy)-7,9-dimethyl-5,16-dioxo-1,2,3,5,6,7,8,9,10,11,13a,14,14a,15,16,16a-hexadecahydrocyclopropa[e]pyrrolo[1,2-a][1,4]diazacyclopentadecin-6-yl)carbamate], the EC50 in assay [1] (setting [5]) is under 5.46 nM; in assay [1] (Hepatitis C virus, Huh-7, 72 h, HCV genotype 1a replicon luciferase assay, read-out: LE_1a (EC50)) it was 3.08 nM; in assay [2] (setting [6]), under 5.46 nM; in assay [2] (Hepatitis C virus, Huh-7, 72 h, HCV genotype 1b replicon luciferase assay, read-out: LE_1b (EC50)) it was 0.8 nM.

For `COc1ccc2c(O[C@@H]3C[C@H]4C(=O)N[C@]5(C(=O)NS(=O)(=O)C6(F)CC6)C[C@H]5/C=C\CC[C@@H](C)C[C@@H](C)[C@H](NC(=O)OC(C)(C)C(F)(F)F)C(=O)N4C3)nccc2c1` [Compound 11], the EC50 in assay [1] (Hepatitis C virus, GETYPE1A, Huh-7, 72 h, HCV genotype 1a replicon luciferase assay, range class, read-out: LE_1a (EC50, range)) was under 5.46 nM; in assay [2] (Hepatitis C virus, GETYPE1B, Huh-7, 72 h, HCV genotype 1b replicon luciferase assay, range class, read-out: LE_1b (EC50, range)), under 5.46 nM.

Regarding `COCCn1nc(O[C@@H]2C[C@H]3C(=O)N[C@]4(C(=O)NS(=O)(=O)C5CC5)C[C@H]4/C=C\CC[C@H](C)C[C@@H](C)[C@H](NC(=O)OC(C)(C)C(C)(F)F)C(=O)N3C2)c2ccccc2c1=O` [Compound 1023, 3,3-difluoro-2-methylbutan-2-yl((2R,6S,7R,9S,13aS,14aR,16aS,Z)-14a-((cyclopropylsulfonyl)carbamoyl)-2-((3-(2-methoxyethyl)-4-oxo-3,4-dihydrophthalazin-1-yl)oxy)-7,9-dimethyl-5,16-dioxo-1,2,3,5,6,7,8,9,10,11,13a,14,14a,15,16,16a-hexadecahydrocyclopropa[e]pyrrolo[1,2-a][1,4]diazacyclopentadecin-6-yl)carbamate], the concentration giving a half-maximal response (EC50) in assay [2] (setting [6]) was over 87.4 nM.

Turning to `COc1ccc2c(O[C@@H]3C[C@H]4C(=O)N[C@]5(C(=O)NS(=O)(=O)C6(CF)CC6)C[C@H]5/C=C\CC[C@H](C)C[C@@H](C)[C@H](NC(=O)OC(C)(C)C(C)(F)F)C(=O)N4C3)nccc2c1` [Compound 1142, 3,3-difluoro-2-methylbutan-2-yl((2R,6S,7R,9S,13aS,14aR,16aS,Z)-14a-(((1-(fluoromethyl)cyclopropyl)sulfonyl)carbamoyl)-2-((6-methoxyisoquinolin-1-yl)oxy)-7,9-dimethyl-5,16-dioxo-1,2,3,5,6,7,8,9,10,11,13a,14,14a,15,16,16a-hexadecahydrocyclopropa[e]pyrrolo[1,2-a][1,4]diazacyclopentadecin-6-yl)carbamate], the EC50 in assay [2] (setting [6]) is under 5.46 nM.

For orientation: EC50 means the concentration giving half of the maximal effect.

The record behind these values is patent US9499550B2 (BRISTOL-MYERS SQUIBB COMPANY, priority 2012, dated 2016).
